According to patent publication US10039833B2, “Drug delivery system to increase bioavailability” (OHIO STATE INNOVATION FOUNDATION, priority 2013, dated 2018):
Values after ≈ are worked out from the molar mass of the structure shown.

Test: physchem

solubility (USP biphthalate buffer, pH 3.5, aqueous buffer): 0.18 µg/mL (≈ 0.391 µM)
solubility (USP biphthalate buffer, pH 5, aqueous buffer): 0.07 µg/mL (≈ 0.152 µM)
solubility (USP chloride buffer, pH 1.2, simulated gastric fluid): 65.3 µg/mL (≈ 142 µM)
solubility (USP phosphate buffer, pH 7.4, aqueous buffer): 0.06 µg/mL (≈ 0.13 µM)
SMILES: NCC(=O)Nc1ccc(-n2nc(C(F)(F)F)cc2-c2ccc3c(ccc4ccccc43)c2)cc1 [AR-12]
